Data reported in patent US20240409647A1, “BISPECIFIC BINDING PROTEINS AGAINST ALARMINS AND USES THEREOF” (SINOMAB BIOSCIENCE LIMITED, priority 2022, published 2024).

Columns and labels:
Human PBMCs = test: CCL8 and IFNγ release from human PBMC incubated with IL-12 and IL-33; type: cell-based; set-up: key to Intensity of specific cytokine inhibition, IFNγ / Intensity of specific cytokine inhibition, CCL-8: −: no inhibition; +: weak; ++: moderate; +++: strong inhibition
Experimental: Human PBMCs (4×10^5 per group, Ixcells) were incubated with IL-2 (10 unit/mL, PeproTech) and various alarmin/alarmin combinations to mimic the pro-inflammatory cytokines release during allergic diseases. For IL-5 and IL-13 releases, PBMCs were incubated with IL-2 and three alarmins (all 10 ng/ml) for three days. For CCL17 release, PBMC was incubated with TSLP (10 ng/ml) for 1 day. For CCL8 and IFNγ releases, PBMCs were incubated with IL-12 (10 ng/ml, Sino Biological) and IL-33 (10 ng/ml) for 1 day. Cells were pretreated with SM17 (5 μg/ml) or IgG4 isotype control (5 μg/ml) for an hour before the addition of cytokines.
Supernatants were collected and the cytokine concentration were measured by ELISA kits (R&D systems). These established assays were used to test the potency of and SM17 and bsBps. […] Results were expressed in absolute amount in pg/ml.
SM17, three different SM17-anti-IL33 bsBps and three different SM17-anti-TSLP bsBps (all at 5 μg/ml) were added to human PBMC cultures under conditions that shall induce the release of IFNγ, CCL8, CCL17 and IL-5 as described in Example 11 above. The levels of different cytokines and chemotactic factors in supernatant obtained in induced PBMC were evaluated using standard ELISA methods.

[1] = system: Human renal carcinoma cell line TK-10; test: IL-8 release from IL-25/TNFa-treated TK-10 cells; type: cell-based; details: 1 mg/mL; 100 ng/mL IL-25, 10 ng/mL TNFa; 24 or 48 hours
Experimental: Human renal carcinoma cell line TK-10 (NCI-60, NIH, Bethesda, MD) treated with human IL-25 (PeproTech) and TNFa (R&D systems) can lead to the release of IL-8, also known as neutrophil chemotactic factor, an important mediator of the immune reaction in the innate immune system response. Accordingly, the inhibitory effects of SM17 and its murine counterpart (D9.2) on IL-8 release from IL-25/TNFa-treated TK-10 cells was evaluated. Briefly, SM17 (human IgG4 isotype, SinoMab BioScience Limited, Hong Kong, China), SM17-IgG1 (human IgG1 isotype, SinoMab BioScience Limited) and its murine counterpart (D9.2, SinoMab BioScience Limited) at a concentration of 1 mg/mL were added to 2×10^4 of TK-10 cells in the presence of 100 ng/mL of IL-25 and 10 ng/mL of TNFa. Non-specific human IgG1 (SM03, anti-CD22 chimeric antibody, SinoMab BioScience Limited) was used as the control antibody. Treated cells were cultured in OptiMEM (Thermo Fisher Scientific) for 24 or 48 hours at 37° C., and the level of IL-8 release in the culture supernatant was measured by standard ELISA assay using a commercial kit (R&D systems).

hIL17RA = target: T1, hIL17RA (Homo sapiens, UniProt Q96F46); test: ELISA, SM17 specificity against IL-17 receptor subunits (IL17RA); type: binding; details: 0.4 to 0.00064 μg/mL
T1 construct: purchased R&D systems
Experimental: A standard ELISA method was used to determine the specificity of SM17 against other human IL17 receptor subunits. Similarly, serially diluted SM17 at different concentrations (final concentrations at 0.4, 0.08, 0.016, 0.0032 and 0.00064 μg/m, respectively) was added to the wells of ELISA plates coated either with human IL-17 receptor subunits A, C, D and E (IL17RA, IL17RC, IL17RD, and IL17RE) (R&D systems).

[2] = system: Th2 cell population in human PBMC; test: Th2 cell population in human PBMC culture (flow cytometry); type: cell-based; set-up: key: −: no inhibition; +: weak; ++: moderate; +++: strong inhibition; details: IL-2 (10 unit/mL) and three alarmins (10 ng/ml), 5 days
Description: While alarmins are known to work in concert to enhance ILC2 and Th2 cell functions such as increase in cell population, steroids such as Dexamethasone (Dex) can negate these effects, resulting in the mitigation of type 2 immune responses [Jia, Yi et al. American Journal Of Respiratory Cell And Molecular Biology, vol. 55, 5 (2016): 675-683]. ILC2 and Th2 cell population can be determined by flow cytometry (BD FACSVerse) following standard procedures known to those skilled in the art.

wild type HEK293 = test: Flow cytometry, SM17 binding to wild type HEK293; details: SM17 1 μg/ml
Experimental: HEK293 cells (ATCC, Manassas, VA) transfected either with full-length human or rhesus monkey IL-17RB (SinoBiological, Beijing, China) were examined for binding to SM17 following standard protocol for flow cytometry. Wild-type HEK293 stained with IgG4 isotype control (Sino Biological) was used as the negative control and for gating purpose. Briefly, HEK293 cells at a density of 3×10^5 cells were seeded into each well of a 6-well plate. On the next day, human or rhesus Il-17RB full length cDNA were first cloned into pCMV3-untagged expression plasmid through standard molecular cloning technique, and then expression plasmids for human or rhesus IL-17RB were transfected into HEK293 cells by lipofection (Lipofectamine 3000 reagent; Thermo Fisher Scientific). Transfected cells were trypsinized, harvested, and fixed with 4% paraformaldehyde (5 minutes). SM17, or human IgG4 control at 1 μg/ml in washing buffer (3% BSA in PBS) were added to the resuspend cells for incubation at RT for 30 min before Alexa Fluor® 647-conjugated goat anti-human IgG specific antibody (1:2000 dilution in washing buffer) (Jackson ImmunoResearch) was added for flow cytometry analysis using the BD FACSVerse cell analyzer (Becton Dickenson, Franklin Lakes, NJ).

TSLP = target: T2, TSLP (Homo sapiens, UniProt Q969D9); test: Bio-Layer Interferometry (Octet), binding kinetics of bsBp to human TSLP
T2 construct: purchased R&D systems
Experimental: The binding affinity of bsBp to the targeted alarmins was determined using a bio-Layer Interferometry analysis (Octet ReD96 system, Sartorius). bsBp or SM17 (20 μg/mL) was immobilized on biosensors via binding to anti-human Fab CH1 region; serially diluted human IL33 and TSLP (158.7 nM, 79.4 nM, 39.7 nM) (R&D systems) were added to plot the association and dissociation curve according to the manufacturer's specification. Biosensors immobilized with irrelevant antibody (SM03, anti-human CD22 chimeric IgG1 antibody, SinoMab BioScience Limited, 20 μg/mL) were used as control reference.

[3] = SM17 5 μg/ml, IL-12 and IL-33 10 ng/ml, 1 day, vs IgG4 isotype control

Substance: SM17: humanized anti-IL17RB monoclonal antibody, human IgG4 isotype; HC SEQ ID NO: 32, LC SEQ ID NO: 33
- Intensity of specific cytokine inhibition, CCL-8 (Human PBMCs; 5 μg/ml, human PBMC): −
- Intensity of specific cytokine inhibition, IFNγ (Human PBMCs; 5 μg/ml, human PBMC): −
- CCL8 release (in words) (Human PBMCs; [3]): no inhibitory effects
- IFNγ release (in words) (Human PBMCs; [3]): no inhibitory effects
- release of IL-8 by IL-25/TNFa-induced TK-10 cells (in words) [1]: efficiently suppress the release of IL-8
- binding of SM17 to IL17RA (in words) (hIL17RA): No obvious bindings
- Cell proliferation inhibition, Th2 [2]: +++
- binding of SM17 to wild type HEK293 (wild type HEK293): ~7%
- Kdis (TSLP): 0.001 s⁻¹
- Ka (TSLP; bsBp or SM17 immobilized at 20 μg/mL): 10000 M⁻¹ s⁻¹
